Results taken from patent publication US10550124B2, “Atropisomerism for increased kinase inhibitor selectivity” (SAN DIEGO STATE UNIVERSITY RESEARCH FOUNDATION, priority 2015, dated 2020).

Key:
[1] = Experimental measurement of the barriers to rotation (chiral HPLC); assay type: physicochemical; details: for Barrier to Rotation: calculated from kobs, Gibbs free energy equation; for Barrier to Rotation kobs: observed rate constant of racemization, in ethanol, heated at constant temperature, in s^-1 (unit assumed)
Protocol: Enantiomerically enriched atropisomeric pyrrolopyrimidine analogues were isolated via chiral HPLC (Daicel Chiralpak IA PN:80335, 3 mL/min, 80:20 or 50:50 hexanes:[…], 25° C.) and evaporated in vacuo. The enantiomerically enriched analogues were then dissolved in ethanol and placed in a sealed 2-dram vial and heated under constant temperature on an aluminum block. At each time point, an aliquot of the mixture was removed and quenched in an HPLC vial containing ice cold 80:20 hexanes:ethanol. Each sample was then injected into the chiral HPLC system (Daicel Chiralpak IA PN:80325, 1 mL/min, 80:20 or 50:50 hexanes:ethanol, 25° C.) and enantiomeric excess (ee) measured. The timepoint and enantiomeric excess (ee) data was then plotted in order to determine an observed rate constant, kobs, at the corresponding temperature. The barrier to rotation was then calculated using the relationship of kracemization=2*kenantiomerization and then substituted into the Gibbs Free Energy Equation:
[formula] where h=Planck Constant, kb=Boltzmann Constant, T=Temp. (K), R=Gas Constant.

Src kinase = Src kinase (Homo sapiens, UniProt P12931); test: Z′-LYTE kinase inhibition assay, Src; assay type: biochemical; details: Src; error is standard deviation
Chain of Src kinase (P12931 whole entry): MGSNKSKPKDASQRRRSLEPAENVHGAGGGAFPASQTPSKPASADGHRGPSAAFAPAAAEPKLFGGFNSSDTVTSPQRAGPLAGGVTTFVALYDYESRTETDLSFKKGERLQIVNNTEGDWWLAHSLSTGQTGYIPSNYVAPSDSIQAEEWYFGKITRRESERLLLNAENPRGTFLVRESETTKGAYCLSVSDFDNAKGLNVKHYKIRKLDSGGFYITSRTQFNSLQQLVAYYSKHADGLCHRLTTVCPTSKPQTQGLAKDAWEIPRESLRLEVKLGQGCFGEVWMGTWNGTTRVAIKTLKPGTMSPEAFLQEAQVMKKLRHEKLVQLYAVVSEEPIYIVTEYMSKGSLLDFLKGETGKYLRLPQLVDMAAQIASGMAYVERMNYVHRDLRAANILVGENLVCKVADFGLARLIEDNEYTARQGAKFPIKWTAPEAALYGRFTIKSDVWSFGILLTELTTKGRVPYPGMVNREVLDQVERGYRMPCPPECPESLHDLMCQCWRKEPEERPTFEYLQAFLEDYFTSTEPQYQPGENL
Source text: Based on the observed stereochemical stabilities, we chose 1f, 2e, and 2f for further study and obtained inhibition data against Src kinase from Life Technologies' Z′-LYTE™ kinase assay (Scheme 3).
All samples were sent out to Life Technologies to obtain kinase inhibition data. A brief description of the assays and analyses are included below.
Assay Theory (SelectScreen® Kinase Profiling Services (Life Technologies, Madison, Wis. USA). The Z′-LYTE® biochemical assay employs a fluorescence-based, coupled-enzyme format and is based on the differential sensitivity of phosphorylated and non-phosphorylated peptides to proteolytic cleavage. The peptide substrate is labeled with two fluorophores one at each end—that make up a FRET pair.
In the primary reaction, the kinase transfers the gamma-phosphate of ATP to a single tyrosine, serine or threonine residue in a synthetic FRET-peptide. In the secondary reaction, a site-specific protease recognizes and cleaves non-phosphorylated FRET-peptides.
Phosphorylation of FRET-peptides suppresses cleavage by the Development Reagent. Cleavage disrupts FRET between the donor (i.e., coumarin) and acceptor (i.e., fluorescein) fluorophores on the FRET-peptide, whereas uncleaved, phosphorylated FRET-peptides maintain FRET. A ratiometric method, which calculates the ratio (the Emission Ratio) of donor emission to acceptor emission after excitation of the donor fluorophore at 400 nm, is used to quantitate reaction progress, as shown in the equation below: […]
A significant benefit of this ratiometric method for quantitating reaction progress is the elimination of well-to-well variations in FRET-peptide concentration and signal intensities. As a result, the assay yields very high Z′-factor values (>0.7) at a low percent phosphorylation. Both cleaved and uncleaved FRET-peptides contribute to the fluorescence signals and therefore to the Emission Ratio. The extent of phosphorylation of the FRET-peptide can be calculated from the Emission Ratio. The Emission Ratio will remain low if the FRET-peptide is phosphorylated (i.e., no kinase inhibition) and will he high if the FRET-peptide is non-phosphorylated (i.e., kinase inhibition).

Compound | Barrier to Rotation [1] [kcal/mol] | Barrier to Rotation kobs [1] | IC50 (Src kinase) [nM]
COc1ccc(Cl)c(-c2c(Cl)n(C(C)(C)C)c3ncnc(N)c23)c1 (racemic) [Compound 2e, 7-(tert-butyl)-6-chloro-5-(2-chloro-5-methoxyphenyl)-7H-pyrrolo[2,3d]pyrimidin-4-amine] | 28.6 | 3.27E−05 | 
COc1ccc(Br)c(-c2c(Cl)n(C3CCCC3)c3ncnc(N)c23)c1 (racemic) [Compound 1f, 5-(2-bromo-5-methoxyphenyl)-6-chloro-7-cyclopentyl-7H-pyrrolo[2,3-d]pyrimidin-4-amine] | 29.0 | 1.01E−05 | 
COc1ccc(Br)c(-c2c(Cl)n(C(C)(C)C)c3ncnc(N)c23)c1 (racemic) [Compound 2f, 5-(2-bromo-5-methoxyphenyl)-7-(tert-butyl)-6-chloro-7H-pyrrolo[2,3-d]pyrimidin-4-amine] | 30.4 | 2.68E−05 | 
COc1ccc(Br)c(-c2c(Cl)n(C3CCCC3)c3ncnc(N)c23)c1 (single isomer, unassigned) [1f-(S), 5-(2-bromo-5-methoxyphenyl)-6-chloro-7-cyclopentyl-7H-pyrrolo[2,3-d]pyrimidin-4-amine] |  |  | 1300
